Measured values: the supplement of paper PMC10883282
± gives the standard deviation of the averaged measurements.

Test system: SW684
Experiment: relative viability vs DMSO control (72 h) (fraction); higher = more viable cells
In short: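 After seeding at densities set for 80–90% confluence in 384-well plates, sarcoma cell lines waited 24 h before 2.5 µl of serially diluted compound was added. Source plates held 10 mM down to 0.0002 mM. Plates were incubated 72 h at 37 °C with 5% CO2, with 0.1% DMSO vehicle and a 5 µM positive control, and relative viability was taken from ATPLite as percent growth averaged over up to triplicate wells, with 1 set as full and 0 as none.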

SMILES | relative viability (0.00017 µM) | relative viability (0.00051 µM) | relative viability (0.00152 µM) | relative viability (0.00457 µM) | relative viability (0.01372 µM) | relative viability (0.04115 µM) | relative viability (0.1235 µM) | relative viability (0.3704 µM) | relative viability (1.111 µM) | relative viability (3.333 µM) | relative viability (10 µM)
COc1cc2/c(=N/c3ccc(Br)cc3F)nc[nH]c2cc1OCC1CCN(C)CC1 [Vandetanib] | 1.13 ± 0.018 | 1.09 ± 0.075 | 1.14 ± 0.035 | 1.12 ± 0.074 | 1.16 ± 0.033 | 1.16 ± 0.02 | 1.16 ± 0.069 | 1.168 ± 0.0075 | 1.15 ± 0.038 | 1.03 ± 0.054 | 0.132 ± 0.016
CCc1cc2c(cc1N1CCC(N3CCOCC3)CC1)C(C)(C)c1[nH]c3cc(C#N)ccc3c1C2=O [Alectinib] | 1.15 ± 0.037 | 1.13 ± 0.066 | 1.11 ± 0.035 | 1.129 ± 0.011 | 1.19 ± 0.058 | 1.2 ± 0.1 | 1.21 ± 0.055 | 1.22 ± 0.073 | 1.2 ± 0.055 | 1.16 ± 0.022 | 1.18 ± 0.04
Cc1nc(-c2cn3c(n2)-c2ccc(-c4cnn(C(C)(C)C(N)=O)c4)cc2OCC3)n(C(C)C)n1 [Taselisib] | 1.09 ± 0.027 | 1.1 ± 0.036 | 1.06 ± 0.019 | 1.01 ± 0.027 | 0.923 ± 0.036 | 0.75 ± 0.021 | 0.634 ± 0.009 | 0.549 ± 0.017 | 0.477 ± 0.0088 | 0.445 ± 0.026 | 0.451 ± 0.015
O=C(Cc1ccc(-c2ccc(OCCN3CCOCC3)cc2)cn1)NCc1ccccc1 [KX2-391] | 1.13 ± 0.039 | 1.15 ± 0.03 | 1.18 ± 0.014 | 1.182 ± 0.011 | 1.15 ± 0.025 | 1.04 ± 0.073 | 0.77 ± 0.02 | 0.696 ± 0.027 | 0.751 ± 0.024 | 0.762 ± 0.044 | 0.734 ± 0.033
